We go through eleven compounds from ChEMBL document CHEMBL1201862, “PubChem BioAssay data set” (2004).

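The compound was tested at five concentrations on cells cultured in 96-well plates, with a 48-hour exposure period. The concentration for 50% growth inhibition is given as GI50.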 Active and inactive are the calls of the source. No stated cut-off is given here; in the data, active = GI50 up to about 1.1 µM and inactive = higher.

Common to all, as to assay: NCI tumour cell line growth inhibition, 48 h
The test system of assay [1] is NCI/ADR-RES.
Assay [2] has as its system DU-145.
The test system of assay [3] is HOP-62.
Assay [4] concerns SK-MEL-2.
The subject of assay [5] is SNB-19.
For assay [6], the system named is SF-295.
Assay [7] deals with SF-539.
Assay [8] deals with HCT-15.
The test system of assay [9] is HT-29.
Assay [10] deals with 786-0.
Assay [11] deals with UACC-257.
Assay [12] relates to K562.
In assay [13] the test system is MDA-MB-435.
Assay [14] has as its system M14.
Assay [15] has as its system T47D.
For assay [16], the system named is CAKI-1.
Assay [17] relates to NCI-H460.
The subject of assay [18] is HCC 2998.
Assay [19] has as its system CCRF-CEM.

Turning to `Cc1ccccc1NC(=O)O/N=C(\Cl)C(C)C`, the GI50 was 16.5 µM (inactive) in assay [1]; 17.2 µM (inactive) in [2]; 17.3 µM (inactive) in assay [3]; 17.8 µM (inactive) in assay [4]; 20.8 µM (inactive) in assay [5]; 18.9 µM (inactive) in [6]. In addition, the GI50 in [7] was 9.08 µM (inactive); in assay [8], 2.09 µM; in assay [9], 5.56 µM (inactive); in [10] it was 1.81 µM (inactive); in assay [11], 14.9 µM (inactive); in assay [12], 1.46 µM (inactive). The GI50 in [13] is 13.2 µM (inactive); in assay [14] it was 3.22 µM (inactive); in assay [15], 3.79 µM (inactive); in assay [16] it was 1.77 µM (inactive); in assay [17] it was 17.8 µM (inactive); in assay [18] it was 17.3 µM (inactive). The GI50 in [19] was 1.48 µM (inactive).
As to `O=C1C(c2c(O)[nH]c3ccc(S(=O)(=O)O)cc23)=Nc2ccccc21`, the GI50 in assay [1], in assay [2], in assay [3], in assay [4], in assay [5] and in [6] was > 100 µM (inactive) throughout. Besides, the GI50 in assay [8] is above 100 µM; in [9], > 100 µM (inactive); in [10] it was > 100 µM (inactive); in assay [11], > 100 µM (inactive); in assay [12], > 100 µM (inactive); in assay [13], > 100 µM (inactive). In addition, the GI50 is > 100 µM (inactive) in assay [14]; 72.1 µM (inactive) in [15]; > 100 µM (inactive) in assay [16]; > 100 µM (inactive) in [17]; > 100 µM (inactive) in assay [18]; > 100 µM (inactive) in [19].
On to `NNC(=O)C(O)C(O)C(O)CO` (stereo unspecified), for which the GI50 in [1], in assay [2], in assay [3], in assay [4], in [5] and in assay [6] was > 100 µM (inactive) each time. Further, the GI50 in [8] is above 100 µM; in assay [9], > 100 µM (inactive); in assay [10], > 100 µM (inactive); in assay [11], > 100 µM (inactive); in assay [12], > 100 µM (inactive); in [13], > 100 µM (inactive). Besides, the GI50 in assay [14], in assay [15], in assay [16], in assay [17], in assay [18] and in assay [19] was > 100 µM (inactive) each time.
On to `COc1ccccc1C1=C2C(=O)N(C)C(c3ccccc3OC)=C2C(=O)N1C`, for which the GI50 in [1] is 45.7 µM (inactive); in assay [2] it was > 100 µM (inactive); in [3], 18.9 µM (inactive); in assay [5], 32 µM (inactive); in [6] it was 51.4 µM (inactive); in assay [7], 27.6 µM (inactive). Besides, the GI50 in assay [8] was above 100 µM; in [9], > 100 µM (inactive); in assay [10] it was 29.5 µM (inactive); in assay [11] it was 79.8 µM (inactive); in assay [12], > 100 µM (inactive); in assay [13], > 100 µM (inactive). Also, the GI50 in assay [14] was > 100 µM (inactive); in assay [15] it was 71.3 µM (inactive); in [16], > 100 µM (inactive); in assay [17], 84.1 µM (inactive); in assay [18], > 100 µM (inactive); in assay [19] it was > 100 µM (inactive).
For the compound `CCOC(=O)c1c(N2CCOCC2)[nH]c(=O)c(C(c2ccc(Cl)c([N+](=O)[O-])c2)c2c(O)c(C(=O)OCC)c(N3CCOCC3)[nH]c2=O)c1O`, the GI50 in assay [1] was 39 µM (inactive); in assay [2], 22.9 µM (inactive); in assay [3] it was 34.9 µM (inactive); in assay [5] it was 26.5 µM (inactive); in assay [6] it was > 100 µM (inactive); in assay [7], 26.5 µM (inactive). Also, the GI50 was above 100 µM in assay [8]; 20.9 µM (inactive) in assay [9]; 28.1 µM (inactive) in [10]; 70 µM (inactive) in assay [11]; 30.3 µM (inactive) in assay [12]; 30.6 µM (inactive) in assay [13]. The GI50 in assay [14] is 20.7 µM (inactive); in [15], 19.7 µM (inactive); in assay [16], 82.6 µM (inactive); in assay [17], > 100 µM (inactive); in [18] it was > 100 µM (inactive); in [19], 4.76 µM (inactive).
`COc1cc(OCc2ccc3nc(-c4ccccc4)c(Cl)nc3c2)cc(OC)c1OC`: the GI50 is 58.1 µM (inactive) in assay [1]; > 100 µM (inactive) in assay [2]; 33.3 µM (inactive) in assay [3]; 45.5 µM (inactive) in assay [4]; 52.7 µM (inactive) in assay [5]; 37.4 µM (inactive) in assay [6]. Also, the GI50 is 31.2 µM (inactive) in assay [7]; above 100 µM in assay [8]; > 100 µM (inactive) in [9]; 29.4 µM (inactive) in assay [10]; > 100 µM (inactive) in assay [11]; > 100 µM (inactive) in assay [13]. Also, the GI50 was > 100 µM (inactive) in [14]; 93.8 µM (inactive) in assay [15]; 24.8 µM (inactive) in assay [16]; 90.2 µM (inactive) in assay [17]; > 100 µM (inactive) in [18]; > 100 µM (inactive) in assay [19].
For `COc1cc(OC)cc(-n2c(N)c(-c3nc4ccccc4s3)c3ccc([N+](=O)[O-])cc3c2=O)c1`, the GI50 in [1] is 24.9 µM (inactive); in assay [2] it was 43.8 µM (inactive); in assay [5], 18.1 µM (inactive); in [6], 28.5 µM (inactive); in assay [7] it was 13.4 µM (inactive); in assay [8] it was 61.1 µM. The GI50 in assay [9] was > 100 µM (inactive); in assay [10], 13.1 µM (inactive); in assay [11], > 100 µM (inactive); in [12], 13.4 µM (inactive); in assay [13], > 100 µM (inactive); in assay [15] it was 17.2 µM (inactive). The GI50 in assay [16] is 31.8 µM (inactive); in assay [17] it was 32.7 µM (inactive); in assay [18] it was 84.5 µM (inactive); in assay [19], 69.7 µM (inactive).
For the compound `Cc1nc2c(cc1OCc1ccccc1)C(=O)C1=C(C2=O)C2OC(=O)CC2OC1(C)C` (stereo unspecified), the GI50 in assay [1] was 3.14 µM (inactive); in assay [2], 1.71 µM (inactive); in assay [3], 1.52 µM (inactive); in assay [4], 1.46 µM (inactive); in assay [5], 2.49 µM (inactive); in [7], 0.728 µM (active). Also, the GI50 in assay [8] is 0.228 µM; in assay [9] it was 0.375 µM (active); in assay [10], 0.3 µM (active); in assay [11] it was 0.671 µM (active); in [13], 0.55 µM (active); in assay [14] it was 0.536 µM (active). In addition, the GI50 in assay [15] was 0.288 µM (active); in assay [16] it was 0.468 µM (active); in [17], 1.32 µM (inactive); in assay [18], 0.579 µM (active); in assay [19] it was 0.17 µM (active).
As to `CCCCCCCc1ccc(-c2nnc(/N=N/c3ccc(OCCCCC)cc3)s2)s1`, the GI50 in assay [1], in [2], in assay [3], in assay [4], in [5] and in assay [6] was > 100 µM (inactive) throughout. Moreover, the GI50 was > 100 µM (inactive) in [7]; above 100 µM in [8]; > 100 µM (inactive) in assay [9]; > 100 µM (inactive) in assay [10]; > 100 µM (inactive) in assay [11]; > 100 µM (inactive) in [13]. Moreover, the GI50 in [14], in assay [15], in [16], in [17], in assay [18] and in assay [19] was > 100 µM (inactive) each time.
As to `C[As+](C)(c1ccc(Br)c([N+](=O)[O-])c1)c1ccc(Br)c([N+](=O)[O-])c1`, the GI50 in assay [1], in assay [2], in [3], in [4], in assay [5] and in assay [6] was > 100 µM (inactive) throughout. Further, the GI50 was > 100 µM (inactive) in assay [7]; above 100 µM in assay [8]; > 100 µM (inactive) in [9]; > 100 µM (inactive) in assay [10]; > 100 µM (inactive) in [11]; > 100 µM (inactive) in [12]. Further, the GI50 in assay [13], in assay [14], in assay [15], in [16], in [17] and in [18] was > 100 µM (inactive) throughout.
Turning to `CC(=O)NC1C(OC(C)C(=O)NC(C(=O)NC(CCC(=O)NCCCNC2c3ccccc3Nc3cccc([N+](=O)[O-])c32)C(N)=O)C(C)C)C(O)C(CO)OC1(C)OCc1ccccc1` (stereo unspecified), the GI50 in [1] is 2.02 µM (inactive); in assay [2], 0.264 µM (active); in [3], 1.27 µM (inactive); in assay [4], 1.22 µM (inactive); in [5] it was 1.56 µM (inactive); in [6], 1.62 µM (inactive). Moreover, the GI50 in [8] was 0.463 µM; in [9], 0.152 µM (active); in assay [10], 0.536 µM (active); in [11] it was 2.33 µM (inactive); in [12], 0.363 µM (active); in [13], 0.579 µM (active). For the same compound, the GI50 in [14] was 1.18 µM (inactive); in [15], 1.73 µM (inactive); in assay [16], 1.33 µM (inactive); in assay [17] it was 0.108 µM (active); in assay [18], 0.671 µM (active); in [19] it was 1.02 µM (active).
